What was measured:
Conditions in all cases: 48 h
SEM cells [1] = assay: AUC of viability dose-response curve (% viability x log10 dose units); higher = less sensitive
Summary of the method: (§1)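 Seeding of medium-adapted leukemia cells was at 500 or 1000 cells/well in 1536-well plates, followed by 48 h at 37°C with library compounds in DMSO at 11 threefold doses from 47 μM to 0.79 nM. CellTiter-Glo One luminescence was normalised per plate to DMSO and cell-free wells and fitted as a four-parameter log-logistic function of log10 dose. Area under the curve was integrated by trapezoidal rule, with curves exceeding full viability scaled and curves failing quality control removed.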

P12-Ichikawa [2] = assay: as above
Summary of the method: as §1

NOMO1 [3] = assay: as above
Summary of the method: as §1

SEM cells [4] = assay: cell viability relative to DMSO control; higher = less cytotoxic
Summary of the method: (§2)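 NOMO1, SEM and P12-Ichikawa leukemia cells spent at least four passages adapting to each medium before use. They were seeded at 500 cells/well (NOMO1, SEM) or 1000 cells/well (P12-Ichikawa) in 5 μl in 1536-well plates and pin-dosed with library compounds in DMSO at 11 threefold steps from 47 μM down to 0.79 nM. After 48 h at 37°C, CellTiter-Glo One luminescence was read. Viability is reported as a percentage of the DMSO wells on each plate, with cell-free wells as background.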

P12-Ichikawa [5] = assay: as above
Summary of the method: as §2

NOMO1 [6] = assay: as above
Summary of the method: as §2

C[C@H]1O[C@H](O[C@H]2[C@H](O)[C@@H](O)[C@H](O[C@@H]2CO)O[C@H]3[C@H](O)[C@@H](O)C(O)O[C@@H]3CO)[C@H](O)[C@@H](O)[C@@H]1N[C@H]4\C=C(CO)/[C@@H](O)[C@H](O)[C@H]4O (some centres undefined)
AUC of viability dose-response curve
Conditions	NOMO1 [3]	P12-Ichikawa [2]	SEM cells [1]
HPLM + 10% dialyzed FBS	330	321	437
RPMI 5 mM glucose + 10% FBS	309	335	456
RPMI 5 mM glucose + 10% dialyzed FBS	319	374	432

COC(=O)C1=C(C)NC(C)=C(C(=O)OCCN2CCN(C(c3ccccc3)c3ccccc3)CC2)C1c1cccc([N+](=O)[O-])c1.Cl.Cl (centres undefined)
AUC of viability dose-response curve
Conditions	NOMO1 [3]	P12-Ichikawa [2]	SEM cells [1]
HPLM + 10% dialyzed FBS	472	447	463
RPMI 5 mM glucose + 10% FBS	464	464	421
RPMI 5 mM glucose + 10% dialyzed FBS	445	442	453

CN1[C@@H]2CCC[C@H]1C[C@@H](NC(=O)c1nn(C)c3ccccc13)C2.Cl
AUC of viability dose-response curve
Conditions	NOMO1 [3]	P12-Ichikawa [2]	SEM cells [1]
HPLM + 10% dialyzed FBS	468	463	468
RPMI 5 mM glucose + 10% FBS	466	444	434
RPMI 5 mM glucose + 10% dialyzed FBS	465	465	457

SEM cells [4], HPLM + 10% dialyzed FBS
Conditions	cell viability [%]
0.000781 µM	112
0.00234 µM	110
0.00702 µM	126
0.0211 µM	115
0.0632 µM	126
0.19 µM	123
0.569 µM	124
1.71 µM	125
5.12 µM	133
15.4 µM	119
46.1 µM	115

CN1C(=O)C(Cc2c[nH]c3ccccc23)NC1=S (centres undefined)
AUC of viability dose-response curve
Conditions	NOMO1 [3]	P12-Ichikawa [2]	SEM cells [1]
HPLM + 10% dialyzed FBS	467	458	437
RPMI 5 mM glucose + 10% FBS	448	450	405
RPMI 5 mM glucose + 10% dialyzed FBS	451	461	422

COc1ccc2c(c[n+](C)c3c4cc5c(cc4ccc23)OCO5)c1OC
AUC of viability dose-response curve
Conditions	NOMO1 [3]	P12-Ichikawa [2]	SEM cells [1]
HPLM + 10% dialyzed FBS	438	423	407
RPMI 5 mM glucose + 10% FBS	447	406	397
RPMI 5 mM glucose + 10% dialyzed FBS	449	404	402

Cn1c2ccccc2c2c3c(c4c5ccccc5n(CCC#N)c4c21)CNC3=O
AUC of viability dose-response curve
Conditions	NOMO1 [3]	P12-Ichikawa [2]	SEM cells [1]
HPLM + 10% dialyzed FBS	362	393	305
RPMI 5 mM glucose + 10% FBS	376	363	308
RPMI 5 mM glucose + 10% dialyzed FBS	367	367	300

cell viability [%], SEM cells [4]
Conditions	HPLM + 10% dialyzed FBS	RPMI 5 mM glucose + 10% dialyzed FBS
0.000781 µM	109	123
0.00234 µM	118	103
0.00702 µM	142	159
0.0211 µM	119	130
0.0632 µM	111	124
0.19 µM	98.1	107
0.569 µM	55	52.7
1.71 µM	41	39.4
5.12 µM	25.7	19
15.4 µM	18.8	18.5
46.1 µM	17.6	11.2

C[C@H]1CN(C[C@@H](C)O1)CC(=O)NC2=CC=C3SC4=C(CC3=C2)C=CC=C4\C5=C\C(=O)\C=C(/O5)N6CCOCC6
NOMO1 [3]
Conditions	AUC of viability dose-response curve
HPLM + 10% dialyzed FBS	397
RPMI 5 mM glucose + 10% FBS	439
RPMI 5 mM glucose + 10% dialyzed FBS	433

cell viability [%]
Conditions	NOMO1 [6]	P12-Ichikawa [5]	SEM cells [4]
HPLM + 10% dialyzed FBS, 0.000781 µM	100	91.6	80.4
HPLM + 10% dialyzed FBS, 0.00234 µM	125	113	108
HPLM + 10% dialyzed FBS, 0.00702 µM	108	73.7	43
HPLM + 10% dialyzed FBS, 0.0211 µM	123	110	118
HPLM + 10% dialyzed FBS, 0.0632 µM	126	110	110
HPLM + 10% dialyzed FBS, 0.19 µM	128	123	126
HPLM + 10% dialyzed FBS, 0.569 µM	118	116	113
HPLM + 10% dialyzed FBS, 1.71 µM	89.2	108	113
HPLM + 10% dialyzed FBS, 5.12 µM	72.5	107	89.8
HPLM + 10% dialyzed FBS, 15.4 µM	39.2	80.3	84.4
HPLM + 10% dialyzed FBS, 46.1 µM	35	51.1	39.8
RPMI 5 mM glucose + 10% FBS, 0.000781 µM	93.4	97.8	76.2
RPMI 5 mM glucose + 10% FBS, 0.00234 µM	125	113	91.8
RPMI 5 mM glucose + 10% FBS, 0.00702 µM	121	66.9	14.3
RPMI 5 mM glucose + 10% FBS, 0.0211 µM	118	125	78.1
RPMI 5 mM glucose + 10% FBS, 0.0632 µM	107	110	86.6
RPMI 5 mM glucose + 10% FBS, 0.19 µM	106	120	80.5
RPMI 5 mM glucose + 10% FBS, 0.569 µM	98.7	114	83.2
RPMI 5 mM glucose + 10% FBS, 1.71 µM	106	124	81.9
RPMI 5 mM glucose + 10% FBS, 5.12 µM	96.8	109	75.8
RPMI 5 mM glucose + 10% FBS, 15.4 µM	64.2	95.8	44.1
RPMI 5 mM glucose + 10% FBS, 46.1 µM	55.8	49.8	15
RPMI 5 mM glucose + 10% dialyzed FBS, 0.000781 µM	85	94.7	86.7
RPMI 5 mM glucose + 10% dialyzed FBS, 0.00234 µM	108	119	95.3
RPMI 5 mM glucose + 10% dialyzed FBS, 0.00702 µM	107	86.3	34.6
RPMI 5 mM glucose + 10% dialyzed FBS, 0.0211 µM	106	116	101
RPMI 5 mM glucose + 10% dialyzed FBS, 0.0632 µM	104	120	118
RPMI 5 mM glucose + 10% dialyzed FBS, 0.19 µM	113	122	111
RPMI 5 mM glucose + 10% dialyzed FBS, 0.569 µM	100	128	103
RPMI 5 mM glucose + 10% dialyzed FBS, 1.71 µM	97.3	118	99.4
RPMI 5 mM glucose + 10% dialyzed FBS, 5.12 µM	85.5	121	73.7
RPMI 5 mM glucose + 10% dialyzed FBS, 15.4 µM	62.7	88.1	46.9
RPMI 5 mM glucose + 10% dialyzed FBS, 46.1 µM	45.2	48.9	19.6
